# Source: PubChem BioAssay (NCI)
# “And” between values parts separate entries of the source, which are not always exact repeats. Identical values can stand only once.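 Where inhibition never reached the appropriate level, the endpoint shown equals the highest concentration tested. Otherwise, values were interpolated linearly from a five-concentration, 48-hour dose response in 96-well plates. The concentration for 50% growth inhibition is given as GI50. TGI denotes the concentration required for complete inhibition of growth.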
# Assays:
# Test in all cases: growth of human tumour cells (NCI), 48 h
# [1] = system: TK-10 renal
# [2] = system: NCI-H226 lung
# [3] = system: T-47D breast
# [4] = system: HS 578T breast
# [5] = system: SK-MEL-28 melanoma
# [6] = system: NCI-H522 lung
# [7] = system: DU-145 prostate
# [8] = system: OVCAR-4 ovarian
# [9] = system: COLO 205 colon
# [10] = system: KM12 colon
Structure (SMILES),GI50 [1],TGI [1],GI50 [2],TGI [2],GI50 [3],TGI [3],GI50 [4],TGI [4],GI50 [5],TGI [5],GI50 [6],TGI [6],GI50 [7],TGI [7],GI50 [8],TGI [8],GI50 [9],TGI [9],GI50 [10],TGI [10]
O=c1cc(-c2ccccc2)oc2cc(OCCCCCN3CCOCC3)cc(O)c12,51.4 µM,> 100 µM,> 100 µM,> 100 µM,42.5 µM,> 100 µM,41.3 µM,> 100 µM,> 100 µM,> 100 µM,31 µM,94.9 µM,> 100 µM,> 100 µM,> 100 µM,> 100 µM,> 100 µM,> 100 µM,> 100 µM,> 100 µM
Cc1c(NC(=O)Nc2c(Cl)cccc2Cl)c(=O)n(-c2ccccc2)n1C,–,> 100 µM,–,> 100 µM,–,> 100 µM,–,> 100 µM,–,> 100 µM,–,> 100 µM,–,> 100 µM,–,> 100 µM,–,> 100 µM,–,> 100 µM
Cc1ccc(-c2c3c(nn2-c2ccc(S(=O)(=O)NC(=O)NC4CCCCC4)cc2)-c2ccccc2C3)cc1,1.7 µM,9.85 µM,20.4 µM,47.3 µM,25.7 µM,> 100 µM,20.5 µM,60.4 µM,18.3 µM,37.5 µM,12 µM,28.9 µM,14.3 µM,28.7 µM,18.2 µM,39.7 µM,12.1 µM,30.4 µM,13 µM,38.2 µM
CSc1ccc(NC(=O)Nc2cc(C)ccn2)cc1,–,> 100 µM,–,> 100 µM,–,> 100 µM,–,> 100 µM,–,> 100 µM,–,> 100 µM,–,> 100 µM,–,> 100 µM,–,> 100 µM,–,> 100 µM
Cc1c(Cl)cccc1NC(=O)c1sc2nc3c(cc2c1N)C(=O)CCC3,37.6 µM,> 100 µM,0.102 µM,> 37.1 µM,0.055 µM,> 100 µM,0.0479 µM,> 58.2 µM,0.174 µM,> 100 µM,0.0204 µM,0.395 µM,0.124 µM,47.3 µM,0.569 µM,> 84.7 µM,0.05 µM,0.344 µM,0.0658 µM,> 100 µM
Cc1ccc(N=Nc2c(O)ccc3n[nH]nc23)cc1,11.7 µM,73.5 µM,15.3 µM,> 100 µM,10.2 µM,57.7 µM,10.9 µM,58.4 µM,20.6 µM,> 100 µM,10.1 µM,45.5 µM,16.1 µM,44.9 µM,9.3 µM,> 100 µM,22.4 µM,73.9 µM,10.8 µM,37.9 µM
Cn1cc(C2=C(c3cc[nH]c3)C(=O)NC2=O)c2ccccc21,> 25 µM,> 25 µM,15.5 µM,> 25 µM,> 17.5 µM,> 25 µM,9.97 µM,> 25 µM,> 25 µM,> 25 µM,24.3 µM,> 25 µM,> 25 µM,> 25 µM,> 25 µM,> 25 µM,> 25 µM,> 25 µM,25 µM,> 25 µM
Cc1nc2sc(C(=O)Nc3ccccc3)c(N)c2cc1C(O)c1ccccc1 (stereo not drawn),6.03 µM,> 100 µM,1.24 µM,> 100 µM,1.27 µM,> 31.8 µM,0.325 µM,> 35.1 µM,10.8 µM,> 100 µM,0.304 µM,> 24.1 µM,0.362 µM,20.9 µM,0.833 µM,> 100 µM,0.376 µM,4.99 µM,0.344 µM,> 44 µM
Cn1c2c(c3ccccc3c1=O)C(=O)c1ccccc1-2,–,> 100 µM,–,> 100 µM,–,> 100 µM,–,> 100 µM,–,> 100 µM,–,> 100 µM,–,> 100 µM,–,> 100 µM,–,> 100 µM,–,> 100 µM
CNCC(=O)NC(CO)C(=O)NC(CO)C(=O)NC1C(C(N)=O)OC(n2ccc(N)nc2=O)C(O)C1O (stereo not drawn),11 µg/mL,> 50 µg/mL,1.65 µg/mL,13.9 µg/mL,> 50 µg/mL,> 50 µg/mL,1.21 µg/mL,4.42 µg/mL,21.7 µg/mL,> 50 µg/mL,1.85 µg/mL,8.98 µg/mL,13 µg/mL,> 50 µg/mL,0.495 µg/mL,3.41 µg/mL,> 50 µg/mL,> 50 µg/mL,20.3 µg/mL,> 50 µg/mL
COC(=O)c1c2c(c(C)[n+]([O-])c1C)C(=O)C(NCc1ccc(F)cc1)=CC2=O,3.32 µM,36.7 µM,2.16 µM,4.87 µM,1.72 µM,4.23 µM,2.47 µM,8.03 µM,3.2 µM,15.6 µM,1.7 µM,4.02 µM,2.11 µM,4.76 µM,0.519 µM,1.87 µM,0.376 µM,1.36 µM,1.66 µM,6.49 µM
CC1=NN(c2cccc(Cl)c2)C(=O)/C1=C\C=C\c1ccccc1,3.17 µM,9.05 µM,2.68 µM,7.62 µM,2.29 µM,39.5 µM,1.65 µM,9.61 µM,2.09 µM,4.3 µM,2.63 µM,6.84 µM,2.91 µM,12.1 µM,3.37 µM,> 100 µM,2.36 µM,4.94 µM,1.64 µM,3.1 µM
Cc1nn(Cc2ccccc2)cc1C(=O)Nc1sc2c(c1C(N)=O)CCC(=O)C2,3.33 µM,26.4 µM,2.29 µM,5.7 µM,1.27 µM,3.79 µM,2.51 µM,9.71 µM,2.07 µM,4.29 µM,1.25 µM,5.25 µM,3.73 µM,> 100 µM,1.47 µM,3.45 µM,1.67 µM,3.76 µM,1.94 µM,4.99 µM
Cc1cc2c3c([n+](C)c4ccc(F)cc4c3c1)-c1cc(F)ccc1N2C,51.8 µM,> 100 µM,3.41 µM,57.3 µM,2.85 µM,84 µM,2.4 µM,9.77 µM,9.77 µM,34.9 µM,6.86 µM,29.4 µM,17.9 µM,> 100 µM,22.1 µM,> 100 µM,3.5 µM,16.3 µM,4.81 µM,44.1 µM
[Cl][Hg][c]1ccc2ccccc2c1,2.92 µM,6.62 µM,14.2 µM,36.3 µM,2.05 µM,4.85 µM,1.77 µM,13.1 µM,1.6 µM,3.03 µM,0.821 µM,2.37 µM,4.97 µM,15.3 µM,2.69 µM,6.71 µM,2.3 µM,5.18 µM,7.66 µM,22.6 µM
CN(C)c1cc2c(Nc3ccc4c(cnn4Cc4ccccc4)c3)ncnc2cn1,0.741 µM,> 23.2 µM,15.9 µM,> 25 µM,3.38 µM,> 20.5 µM,16.6 µM,> 25 µM,20 µM,> 25 µM,1.82 µM,> 25 µM,5.54 µM,> 25 µM,14.2 µM,> 25 µM,10.1 µM,> 25 µM,7.29 µM,> 20 µM
O=C(N/N=C/c1cc(Cl)ccc1O)c1ccccc1Nc1ccnc(C(F)(F)F)c1,0.813 µM,> 48 µM,0.769 µM,7.71 µM,0.633 µM,9.62 µM,1.15 µM,10.5 µM,0.389 µM,15.1 µM,0.689 µM,6.53 µM,0.362 µM,18.8 µM,0.299 µM,35 µM,0.36 µM,13 µM,0.604 µM,11.5 µM
CC(C)(O)CCc1cccc(C(=O)c2cnn(-c3ccc(F)cc3)c2N)c1,> 25 µM,> 25 µM,> 19.7 µM,> 25 µM,8.17 µM,> 25 µM,> 25 µM,> 25 µM,> 25 µM,> 25 µM,> 25 µM,> 25 µM,> 25 µM,> 25 µM,> 23.3 µM,> 25 µM,> 25 µM,> 25 µM,> 25 µM,> 25 µM
COc1cc2c(NC3CCN(C(C)C)CC3)nc(C3CCCCC3)nc2cc1OCCCN1CCCC1,2.15 µM,5.54 µM,12.3 µM,26.9 µM,2.54 µM,7.08 µM,4.11 µM,22.8 µM,1.72 µM,3.24 µM,2.95 µM,8.53 µM,4.75 µM,17.1 µM,5.36 µM,15.9 µM,1.66 µM,3.1 µM,3.07 µM,12.6 µM
Oc1ccc(Cl)cc1Sc1cc(Cl)ccc1O,8.02 µM,31.3 µM and 31.1 µM,4.09 µM,41.9 µM and 19.2 µM,2.76 µM,20.8 µM and 9.93 µM,–,29.7 µM,4.67 µM,26.3 µM and 15.3 µM,2.41 µM,13.6 µM and 9.17 µM,3.83 µM,30.5 µM and 13.7 µM,3.4 µM,22.9 µM and 13.5 µM,5.93 µM,39.9 µM and 20.2 µM,3.26 µM,31.4 µM and 9.18 µM
C=C1C(=O)O[C@@H]2CC(CO)=C([C@@H](C)CCCO)[C@@H](OC(=O)/C(C)=C\C)[C@H]12,–,45.9 µM,–,> 62.8 µM,–,49.7 µM,–,> 100 µM,–,29.3 µM,–,15.3 µM,–,27.7 µM,–,> 84.9 µM,–,28.7 µM,–,43.7 µM
OC(CN1CCCC2CCCCC21)c1cc2ccccc2c2ccccc12 (stereo not drawn),2.3 µM,7.66 µM,2.14 µM,6.32 µM,2.16 µM,5.71 µM,2.37 µM,7.46 µM,2.06 µM,4.36 µM,1.45 µM,3.06 µM,3.73 µM,14 µM,2.39 µM,12.4 µM,1.45 µM,2.9 µM,1.87 µM,4.04 µM
O=C(NCc1ccco1)C1CCN(S(=O)(=O)c2ccc(Cl)cc2)CC1,> 100 µM,> 100 µM,> 100 µM,> 100 µM,> 100 µM,> 100 µM,> 100 µM,> 100 µM,> 100 µM,> 100 µM,90.5 µM,> 100 µM,> 100 µM,> 100 µM,54.9 µM,> 100 µM,> 100 µM,> 100 µM,> 100 µM,> 100 µM
NC(Cc1cccnn1)C(=O)O (stereo not drawn),–,> 100 µM,–,> 100 µM,–,> 100 µM,–,> 100 µM,–,> 100 µM,–,> 100 µM,–,> 100 µM,–,> 100 µM,–,> 100 µM,–,> 100 µM
CCC[n+]1cc2cc3c(cc2c2c1-c1cc4c(cc1C2)OCO4)OCO3 (tested in a mixture with another compound),4.11 µM,38.6 µM,0.719 µM,7.96 µM,0.267 µM,1.61 µM,0.437 µM,3.53 µM,0.783 µM,2.49 µM,–,2.08 µM,1.27 µM,7.73 µM,0.853 µM,5.9 µM,0.49 µM,3.79 µM,0.374 µM,5.33 µM
O=C1C(Cl)=C(Nc2cc(Cl)ccc2O)C(=O)N1Cc1ccccc1,21.4 µM,42.9 µM,8.66 µM,21.9 µM,27.6 µM,> 100 µM,21.7 µM,49.6 µM,16.1 µM,34.2 µM,15.1 µM,30.5 µM,18 µM,33.5 µM,17.2 µM,38.1 µM,18.3 µM,44.3 µM,22 µM,48.2 µM
CC(=O)O[C@@H]1C2=C(C)C3(CC3)[C@@](C)(O)C(=O)C2=C[C@@]1(C)CO,2.6 µM,> 100 µM,2.12 µM,5.22 µM,0.635 µM,7.03 µM,1.68 µM,5.75 µM,1.98 µM,4.52 µM,0.496 µM,4.44 µM,0.342 µM,3.14 µM,0.674 µM,4.44 µM,1.22 µM,3.73 µM,1.32 µM,8.59 µM
